Source: patent US20230048888A1, “USE OF TRIAZOLOTRIAZINE DERIVATIVE IN TREATMENT OF DISEASES” (ZHEJIANG VIMGREEN PHARMACEUTICALS, LTD., priority 2019, published 2023)

How the values were obtained:
[1] = molecular target: T1, human ADORA3 (Homo sapiens, UniProt P0DMS8); test: Calcium flow test (FLIPR), ADORA3 stably transfected CHO; assay type: cell-based; settings: Table 9
T1 construct: host or cells: CHO
T1 sequence (P0DMS8 1-318): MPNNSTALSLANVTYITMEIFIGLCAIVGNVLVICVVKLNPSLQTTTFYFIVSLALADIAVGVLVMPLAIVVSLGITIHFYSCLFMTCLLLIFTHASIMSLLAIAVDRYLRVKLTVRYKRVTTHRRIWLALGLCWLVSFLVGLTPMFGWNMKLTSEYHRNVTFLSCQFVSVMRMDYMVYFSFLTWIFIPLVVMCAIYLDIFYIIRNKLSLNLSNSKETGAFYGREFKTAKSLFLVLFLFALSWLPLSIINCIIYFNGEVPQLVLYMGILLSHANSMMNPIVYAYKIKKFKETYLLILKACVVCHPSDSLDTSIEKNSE
Method: In this experiment, stably transfected cell lines over-expressing adenosine receptor coupled to human Gq were used, and the antagonistic function of Compound 22 was evaluated by testing the changes in intracellular calcium ion concentration. The binding of the A2AR agonist to A2AR could activate a downstream pathway to increase the intracellular calcium ion concentration. The antagonist would competitively occupy the binding site where the agonist binds to A2AR, thereby interrupting the intracellular signal transduction and leading to a change in the intracellular calcium ion concentration. By detecting the strength of the intracellular calcium ion signal, the antagonistic activities of the compound on human ADORA1, ADORA2A, ADORA2B and ADORA3 adenosine receptors were determined. […]
7) The FLIPR instrument software was operated; following a set program, 10 μL of experimental buffer salt solution was added to the cell plate; and fluorescence signals were read. Then, 10 μL of the reference compound of agonist at a predetermined concentration was added to the cell plate, and the fluorescence signals were read. After reading, data was exported by means of “Max-Min” and “Read 91 to Maximum allowed” in the software, the EC80 of each cell line was calculated, and an agonist with a concentration of 6×EC80 was prepared.
9) The FLIPR instrument software was operated; following a set program, 10 μL of the test compound and 10 μL of the reference compound were added at a predetermined concentration to the cell plate; and the fluorescence signals were read. Then, 10 μL of the reference compound of agonist at a concentration of 6×EC80 was added to the cell plate, and the fluorescence signal were read. For the antagonist detection of the compound, data was exported by means of “Max-Min” and “Read 1 to 90” in the software. […]

[2] = molecular target: T2, Human adenosine ADORA3 receptor membrane protein (Homo sapiens, UniProt P0DMS8); test: Radioisotope ligand competitive binding, ADORA3 ([3H] HEMADO); settings: ADORA3 (IC50, nM, n = 3), binding test
T2 construct: purchased PerkinElmer ES-012-M400UA
T2 sequence (P0DMS8 1-318): T1 sequence (P0DMS8 1-318)
Method: ADORA3: 25 mM HEPES pH 7.4, 10 mM MgCl2, 1 mM CaCl2, 0.5% BSA
4) Preparation of compounds: the test compounds and the reference compounds were separately diluted with 100% DMSO. For the test compounds, the initial concentration was 10 μM, with double secondary wells; 4-fold gradient dilution was carried out at 10 points; and the final working concentration was 0.038 nM-10 μM (for the second and third detection of the test compound against an ADORA2A target, the initial concentration was 2 μM, with double secondary wells, 4-fold gradient dilution was carried out at 10 points, and the final working concentration was 0.0076 nM-2 μM). For the ADORA1, ADORA2A, ADORA2B, and ADORA3 reference compounds, the initial concentration was 1 μM, with double secondary wells, 4-fold gradient dilution was carried out at 10 points, and the final working concentration was 0.0038 nM-1 μM.
1 μL of a sample to be tested and 1 μL of a reference compound were added to a 96-well plate in sequence. […] 100 μL of cells and 100 μL of isotopes were added to all experimental wells. The 96-well plate was sealed; ADORA1, ADORA2B, and ADORA3 were incubated for 1 hour on a shaker (300 rpm) at room temperature (22° C.); and ADORA2A was incubated for 2 hours on a shaker (300 rpm) at room temperature (22° C.). At the same time, a GF/C filter plate was soaked with ADORA1, ADORA2A, ADORA2B, and ADORA3 by using 0.3% PEI for at least 30 minutes at room temperature, at 50 μL/well. After the incubation was completed, the incubated reaction system was collected onto the GF/C filter plate with a Harvester, washed 4 times and then dried for 0.5 hours in an oven at 50° C. The bottom of the dried GF/C filter plate was sealed with a film, 50 μL of scintillation solution was added to each well, which was then sealed with a Top-seal-A film. With Microbeta readings, the data was analyzed by GraphPad Prism 5.0.
% Inhibition=100×(1−(Sample_raw value−Low control_Average)/(High control_Average−Low control_Average))
The data was fitted with “log(inhibitor) vs response-variable slope” in GraphPad Prism 5.0 to obtain IC50.

IC50 [1]: 0.0321 ± 0.00452 µM
IC50 ([2]; Table 10 (IC50)): 18 ± 11.4 nM
IC50 ([2]; Table 11): 14.5 nM
SMILES: Nc1nc2ccc(Cl)cc2c2nc(-c3ccco3)nn12 [CGS-15943, reference compound]
